These results are taken from patent publication US10392383B2, “3-(1H-benzo[d]imidazol-2-yl)-1H-pyrazolo[4,3-b]pyridines and therapeutic uses thereof” (Samumed, LLC, priority 2015, dated 2019).

Usually EC50 stands for the midpoint of the concentration-response curve. As a reminder, the inhibition is the percentage by which the read-out fell short of the control.

One experiment relates to IL-6 (THP-1 cells). Description: IL-6 inhibition in LPS-stimulated THP-1 monocytes (HTRF). It counts as cell-based. Conditions: Homo sapiens, IL-6 HTRF; for EC50: 500 ng/mL LPS, Table 6; for inhibition at 10 µM: LPS, Table 6, read-out: percent inhibition at 10 μM (given in parentheses for EC50 >10 μM). In short, it runs like this: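 THP-1 cells in 1% FBS pre-incubated 2 h with compound (10-point 1:3 series from 10 μM, 0.1% DMSO), then stimulated with 500 ng/mL LPS for 22 h at 37 °C. IL-6 measured by HTRF 665/620 ratio, normalized to DMSO; EC50 by four-parameter fit, or % inhibition at 10 μM when EC50 >10 μM.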
On the technique in general: TR-FRET usually uses a lanthanide donor and a delayed reading to cut background.

In experiment [1] the test system is Wnt activity (Sp5-Luc reporter, Wnt-responsive promoter) in SW480 colon carcinoma cells. Nature of the experiment: Wnt activity screening assay: Sp5-Luc reporter gene assay in SW480 cells. The format is cell-based. Conditions: Homo sapiens; for EC50: overnight incubation, 10-point curve starting from 10 μM; for inhibition at 10 µM: read-out: percent inhibition at 10 μM (given for EC50 of >10 μM). In short, it runs like this: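 Wnt-driven firefly luciferase in SW480 colon carcinoma cells reports pathway activity after overnight compound exposure (10 μM top concentration, 3-fold steps). Signal is normalized to DMSO controls.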
Background: Reporter assays use an easily measured gene product as a stand-in for the process of interest.

SMILES strings stand for the structures.

Consider `CN(C)CCOc1cncc(-c2ccc3[nH]nc(-c4nc5c(-c6cccs6)cccc5[nH]4)c3n2)c1` [Compound 707, N,N-Dimethyl-2-((5-(3-(4-(thiophen-2-yl)-1H-benzo[d]imidazol-2-yl)-1H-pyrazolo[4,3-b]pyridin-5-yl)pyridin-3-yl)oxy)ethan-1-amine], for which the EC50 in the experiment with IL-6 (THP-1 cells) was 5.89 µM; in experiment [1] it was 4.19 µM.

Take `Cc1ccc(-c2cccc3[nH]c(-c4n[nH]c5ccc(C6=CCNCC6)nc45)nc23)s1` [Compound 730, 3-(4-(5-Methylthiophen-2-yl)-1H-benzo[d]imidazol-2-yl)-5-(1,2,3,6-tetrahydropyridin-4-yl)-1H-pyrazolo[4,3-b]pyridine]: the EC50 came out at 9.16 µM in the experiment with IL-6 (THP-1 cells) and 1.01 µM in experiment [1].

For `Cc1ccc(-c2cccc3[nH]c(-c4n[nH]c5ccc(-c6cncc(OC7CCCCC7)c6)nc45)nc23)s1` [Compound 735, 5-(5-(Cyclohexyloxy)pyridin-3-yl)-3-(4-(5-methylthiophen-2-yl)-1H-benzo [d]imidazol-2-yl)-1H-pyrazolo[4,3-b]pyridine], the EC50 was > 10 µM in the experiment on IL-6 (THP-1 cells) and 3.81 µM in experiment [1]. Besides, in the experiment on IL-6 (THP-1 cells), the inhibition at 10 µM came out at 38.8%.

Regarding `Cn1cc(-c2ccc3[nH]nc(-c4nc5c(-c6cc(F)cc(CNS(C)(=O)=O)c6)cccc5[nH]4)c3n2)cn1` [Compound 764, N-(3-Fluoro-5-(2-(5-(1-methyl-1H-pyrazol-4-yl)-1H-pyrazolo[4,3-b]pyridin-3-yl)-1H-benzo[d]imidazol-4-yl)benzyl)methanesulfonamide], the EC50 came to 3.15 µM in the experiment with IL-6 (THP-1 cells) and 0.539 µM in experiment [1].

Consider `CS(=O)(=O)NCc1cc(F)cc(-c2cccc3[nH]c(-c4n[nH]c5ccc(-c6cncc(NC(=O)CC7CCNCC7)c6)nc45)nc23)c1` [Compound 769, N-(5-(3-(4-(3-Fluoro-5-(methylsulfonamidomethyl)phenyl)-1H-benzo[d]imidazol-2-yl)-1H-pyrazolo[4,3-b]pyridin-5-yl)pyridin-3-yl)-2-(piperidin-4-yl)acetamide], for which, in the experiment with IL-6 (THP-1 cells), the EC50 was > 10 µM and the inhibition at 10 µM worked out at 25.4%. Further, in experiment [1], the inhibition at 10 µM amounted to 12.3% and the EC50 was > 10 µM.

Regarding `Cc1ncc(-c2ccc3[nH]nc(-c4nc5c(-c6cc(F)cc(NCCN(C)C)c6)cccc5[nH]4)c3n2)n1C` [Compound 781, N^1-(3-(2-(5-(1,2-Dimethyl-1H-imidazol-5-yl)-1H-pyrazolo[4,3-b]pyridin-3-yl)-1H-benzo[d]imidazol-4-yl)-5-fluorophenyl)-N^2,N^2-dimethylethane-1,2-diamine], the EC50 stood at 0.164 µM in the experiment with IL-6 (THP-1 cells) and 0.48 µM in experiment [1].

On to `CN(C)CCNc1cc(F)cc(-c2cccc3[nH]c(-c4n[nH]c5ccc(-c6cncc(OCCN7CCCC7)c6)nc45)nc23)c1` [Compound 786, N^1-(3-Fluoro-5-(2-(5-(5-(2-(pyrrolidin-1-yl)ethoxy)pyridin-3-yl)-1H-pyrazolo[4,3-b]pyridin-3-yl)-1H-benzo[d]imidazol-4-yl)phenyl)-N^2,N^2-dimethylethane-1,2-diamine], for which the EC50 with IL-6 (THP-1 cells) turned out to be 2.07 µM; in experiment [1] it was 3.11 µM.

As to `CN(C)CCNc1cc(F)cc(-c2cccc3[nH]c(-c4n[nH]c5ccc(-c6cncc(OCc7ccccc7)c6)nc45)nc23)c1` [Compound 790, N^1-(3-(2-(5-(5-(Benzyloxy)pyridin-3-yl)-1H-pyrazolo[4,3-b]pyridin-3-yl)-1H-benzo[d]imidazol-4-yl)-5-fluorophenyl)-N^2,N^2-dimethylethane-1,2-diamine], the EC50 in the experiment with IL-6 (THP-1 cells) came out at 3.32 µM; in experiment [1], 1.12 µM.

For the compound `CN(C)CCNc1cc(F)cc(-c2cccc3[nH]c(-c4n[nH]c5ccc(-c6cnccn6)nc45)nc23)c1` [Compound 792, N^1-(3-Fluoro-5-(2-(5-(pyrazin-2-yl)-1H-pyrazolo[4,3-b]pyridin-3-yl)-1H-benzo[d]imidazol-4-yl)phenyl)-N^2,N^2-dimethylethane-1,2-diamine], the EC50 in the experiment with IL-6 (THP-1 cells) amounted to 0.686 µM; in experiment [1], 3.96 µM.

For the compound `CN(C)CC(=O)Nc1cncc(-c2ccc3[nH]nc(-c4nc5c(-c6cccc(F)c6)cccc5[nH]4)c3n2)c1` [Compound 969, 2-(Dimethylamino)-N-(5-(3-(4-(3-fluorophenyl)-1H-benzo[d]imidazol-2-yl)-1H-pyrazolo[4,3-b]pyridin-5-yl)pyridin-3-yl)acetamide], in the experiment on IL-6 (THP-1 cells), the EC50 is > 10 µM and the inhibition at 10 µM was determined as 39%. The compound further registered an EC50 in experiment [1] of 3.99 µM.

Regarding `COc1cccc(-c2cccc3[nH]c(-c4n[nH]c5ccc(-c6cccnc6)nc45)nc23)c1` [Compound 994, 3-(4-(3-Methoxyphenyl)-1H-benzo[d]imidazol-2-yl)-5-(pyridin-3-yl)-1H-pyrazolo[4,3-b]pyridine], in the experiment with IL-6 (THP-1 cells), the EC50 was > 10 µM and the inhibition at 10 µM is 32.2%. For the same compound, the midpoint of the response in experiment [1], the EC50, lay at 4.61 µM.

For `COc1cccc(-c2cccc3[nH]c(-c4n[nH]c5ccc(-c6cncc(NC(=O)Cc7ccccc7)c6)nc45)nc23)c1` [Compound 1000, N-(5-(3-(4-(3-Methoxyphenyl)-1H-benzo[d]imidazol-2-yl)-1H-pyrazolo[4,3-b]pyridin-5-yl)pyridin-3-yl)-2-phenylacetamide], the EC50 in the experiment on IL-6 (THP-1 cells) stood at 0.812 µM; in experiment [1], 3.25 µM.

For the compound `COc1cccc(-c2cccc3[nH]c(-c4n[nH]c5ccc(-c6cncc(NC(=O)CC(C)(C)C)c6)nc45)nc23)c1` [Compound 1006, N-(5-(3-(4-(3-methoxyphenyl)-1H-benzo[d]imidazol-2-yl)-1H-pyrazolo[4,3-b]pyridin-5-yl)pyridin-3-yl)-3,3-dimethylbutanamide], in the experiment with IL-6 (THP-1 cells), the EC50 was > 10 µM and the inhibition at 10 µM was 23.8%. A half-maximal effect in experiment [1] (EC50) was put at 2.41 µM.

Regarding `COc1cccc(-c2cccc3[nH]c(-c4n[nH]c5ccc(-c6cncc(NC(=O)C7CCCCC7)c6)nc45)nc23)c1` [Compound 1012, N-(5-(3-(4-(3-Methoxyphenyl)-1H-benzo[d]imidazol-2-yl)-1H-pyrazolo[4,3-b]pyridin-5-yl)pyridin-3-yl)cyclohexanecarboxamide], in the experiment with IL-6 (THP-1 cells), the EC50 was > 10 µM and the inhibition at 10 µM was determined as 33%. In experiment [1], the inhibition at 10 µM is 3.6% and the EC50 is > 10 µM.

On to `COc1cccc(-c2cccc3[nH]c(-c4n[nH]c5ccc(-c6cn[nH]c6)nc45)nc23)c1` [Compound 1020, 3-(4-(3-Methoxyphenyl)-1H-benzo[d]imidazol-2-yl)-5-(1H-pyrazol-4-yl)-1H-pyrazolo[4,3-b]pyridine], for which, in the experiment on IL-6 (THP-1 cells), the EC50 is > 10 µM and the inhibition at 10 µM is 23.7%. In experiment [1], the inhibition at 10 µM stood at 18.9% and the EC50 was > 10 µM.

Consider `COc1cccc(-c2cccc3[nH]c(-c4n[nH]c5ccc(-c6cncc(OC7CCNCC7)c6)nc45)nc23)c1` [Compound 1025, 3-(4-(3-Methoxyphenyl)-1H-benzo[d]imidazol-2-yl)-5-(5-(piperidin-4-yloxy)pyridin-3-yl)-1H-pyrazolo[4,3-b]pyridine], for which the EC50 in the experiment on IL-6 (THP-1 cells) turned out to be 4.49 µM; in experiment [1], 3.97 µM.

Consider `COc1cccc(-c2cccc3[nH]c(-c4n[nH]c5ccc(-c6cncc(O)c6)nc45)nc23)c1` [Compound 1030, 5-(3-(4-(3-Methoxyphenyl)-1H-benzo[d]imidazol-2-yl)-1H-pyrazolo[4,3-b]pyridin-5-yl)pyridin-3-ol], for which the EC50 with IL-6 (THP-1 cells) was 0.0055 µM; in experiment [1] it was 0.98 µM.

On to `CC(C)CC(=O)Nc1cncc(-c2ccc3[nH]nc(-c4nc5c(-c6ccc(Cl)s6)cccc5[nH]4)c3n2)c1` [Compound 1037, N-(5-(3-(4-(5-Chlorothiophen-2-yl)-1H-benzo[d]imidazol-2-yl)-1H-pyrazolo [4,3-b]pyridin-5-yl)pyridin-3-yl)-3-methylbutanamide], for which, in the experiment on IL-6 (THP-1 cells), the EC50 is > 10 µM and the inhibition at 10 µM was 19.5%. Further, the EC50 in experiment [1] was determined as 1.9 µM.

On to `CC(C)(C)C(=O)Nc1cncc(-c2ccc3[nH]nc(-c4nc5c(-c6ccc(Cl)s6)cccc5[nH]4)c3n2)c1` [Compound 1043, N-(5-(3-(4-(5-chlorothiophen-2-yl)-1H-benzo[d]imidazol-2-yl)-1H-pyrazolo[4,3-b]pyridin-5-yl)pyridin-3-yl)pivalamide], for which the EC50 is > 10 µM in the experiment with IL-6 (THP-1 cells) and 1.31 µM in experiment [1]. Further, the inhibition at 10 µM with IL-6 (THP-1 cells) came out at 16.9%.

Turning to `Clc1ccc(-c2cccc3[nH]c(-c4n[nH]c5ccc(-c6cncc(CN7CCCC7)c6)nc45)nc23)s1` [Compound 1049, 3-(4-(5-Chlorothiophen-2-yl)-1H-benzo[d]imidazol-2-yl)-5-(5-(pyrrolidin-1-ylmethyl)pyridin-3-yl)-1H-pyrazolo[4,3-b]pyridine], in the experiment on IL-6 (THP-1 cells), the EC50 is > 10 µM and the inhibition at 10 µM was 48.3%. This compound also returned an EC50 in experiment [1] of 1.25 µM.

As for `O=C(Nc1cncc(-c2ccc3[nH]nc(-c4nc5c(-c6ccc(Cl)s6)cccc5[nH]4)c3n2)c1)C1CCC1` [Compound 1056, N-(5-(3-(4-(5-Chlorothiophen-2-yl)-1H-benzo[d]imidazol-2-yl)-1H-pyrazolo [4,3-b]pyridin-5-yl)pyridin-3-yl)cyclobutanecarboxamide], the EC50 in the experiment on IL-6 (THP-1 cells) is > 10 µM; in experiment [1], 3.3 µM. Further, the inhibition at 10 µM in the experiment with IL-6 (THP-1 cells) was found to be 47.8%.

Turning to `NC1CN(c2cncc(-c3ccc4[nH]nc(-c5nc6c(-c7ccc(Cl)s7)cccc6[nH]5)c4n3)n2)C1` [Compound 1068, 1-(6-(3-(4-(5-Chlorothiophen-2-yl)-1H-benzo[d]imidazol-2-yl)-1H-pyrazolo [4,3-b]pyridin-5-yl)pyrazin-2-yl)azetidin-3-amine], in the experiment with IL-6 (THP-1 cells), the EC50 is > 10 µM and the inhibition at 10 µM came out at 42.7%. The compound also returned an EC50 in experiment [1] of 1.24 µM.
